Results: patent US9265707B2, “Cosmetic composition comprising coumestrol or a bean extract containing coumestrol for skin care” (AMOREPACIFIC CORPORATION, priority 2010, dated 2016)

How the values were obtained:
[1] = tested on: UVB-induced reactive oxygen species (ROS) in keratinocytes; test: Scavenging of UVB-induced reactive oxygen species (DCFH-DA fluorescence); type: cell-based; conditions: UVB 30 mJ/cm^2, relative to UV-treated control
Text: 2′,7′-Dichlorodihydrofluorescein diacetate (DCFH-DA; Molecular Probes, Inc., OR, USA) was used to evaluate the coumestrol's effect of scavenging UVB-induced ROS. DCFH-DA is an fat-soluble substance well known as a detector of ROS in cells. It is easily absorbed by cells and turned into water-soluble 2′,7′-dichlorodihydrofluorescein as a result of hydrolysis of the acetate group by esterase in the cells. Since it is turned to 2′,7′-dichlorofluorescein (DCF) which emits fluorescence after reaction with intracellular oxidizing agents, the quantity of intracellular ROS can be evaluated by measuring the intensity of fluorescence from cells treated with DCFH-DA.
Keratinocytes (acquired from Dr. Fusenig at German Cancer Research Center) were seeded onto a 96-well black plate (Greiner BioOne Inc., NC, USA) for fluorescence measurement at a density of 1×10^4 cells per well and cultured for 24 hours. Then, the cells were treated with coumestrol diluted in fresh FBS-free medium to a final concentration of 0.01, 0.1 or 1 μM. After addition of the test substance, the cells were cultured for 24 hours. After removing the remaining medium by washing with HEPES-buffered control salt solution (HCSS), 20 μM DCFH-DA in 100 μL of HCSS was added. […] Then, after adding 100 μL of HCSS, the cells were irradiated with UVB of 30 mJ/cm^2 to induce production of ROS. […] The fluorescence intensity of DCF was measured with the Wallac VICTOR2 fluorometer (Wallac, Turku, Finland) at excitation wavelength of 485 nm and emission wavelength of 530 nm. ROS scavenging effect (%) relative to the control group was calculated from the measured fluorescence intensity.

[2] = tested on: MMP-1; test: Inhibition of UV-induced MMP-1 expression (ELISA); type: cell-based; conditions: Fibroblast, light or radiation study, human fibroblasts, UVB 15 mJ/cm^2, 48 hours, untreated control 100, UV-treated control 132, read-out: MMP1 activity (%)
Description: Human fibroblasts (CAS-C-004-5C, Invitrogen, CA, USA) were used to evaluate the coumestrol's effect of inhibiting UV-induced MMP-1 expression. The cells were seeded onto a 24-well plate at a density of 1×10^4 cells per well and cultured for about 24 hours in a medium containing 10% FBS until ˜about 80% confluency. After replacing the medium with an FBS-free medium, the cells were cultured for 24 hours. After washing once with PBS and adding 100 μL of PBS, the cells were irradiated with UVB of 15 mJ/cm^2. After removing the PBS, the cells were treated with coumestrol diluted to a final concentration of 0.01, 0.1 or 1 μM in a fresh FBS-free medium. Expression of MMP-1 was evaluated 48 hours after the treatment with the test substance. The expression of MMP-1 was evaluated using an enzyme-linked immunosorbent assay (ELISA) kit (RPN 2610; Biotrak Amersham Pharmacia Biotech, UK) after collecting a supernatant from the cell culture. The quantity of MMP-1 was determined from the total protein quantity.

[3] = tested on: type I pN collagen; test: Type I pN collagen synthesis (PIP EIA kit); type: cell-based; conditions: human fibroblasts, 48 hours, untreated control 100
Description: Human fibroblasts (CAS-C-004-5C, Invitrogen, CA, USA) were used to evaluate the coumestrol's effect on type I pN collagen synthesis. The cells were seeded onto a 24-well plate at a density of 1×10^4 cells per well and cultured for about 24 hours in a medium containing 10% FBS until ˜about 80% confluency. The cells were treated with coumestrol diluted to a final concentration of 0.01, 0.1 or 1 μM in a fresh FBS-free medium. The synthesized quantity of type I pN collagen was measured using a procollagen type I C-peptide (PIP) EIA kit (MK101; Takara Shuzo, Kyoto, Japan) by collecting a supernatant from the cell culture 48 hours after the treatment with the test substance. The quantity of type I pN collagen was determined from the total protein quantity.

[4] = tested on: advanced glycation end product (AGE) in human fibroblasts; test: Inhibition of glycation of skin cells (AGE ELISA); type: cell-based; conditions: 2.5 μM, UVB 50 mJ/cm^2, 24 hours, untreated control 0.156
Description: (§1) Human fibroblasts (CAS-C-004-5C, Invitrogen, CA, USA) were used to evaluate the coumestrol's effect of inhibiting glycation of skin cells. The cells were seeded onto a 6-well plate at a density of 5×10^4 cells per well and cultured for about 24 hours in a medium containing 10% FBS until ˜about 80% confluency. After washing once with PBS and adding 100 μL of PBS, the cells were irradiated with UVB of 50 mJ/cm^2. After removing the PBS, the cells were treated with coumestrol diluted to a final concentration of 2.5 μM in a fresh FBS-free medium. Glycation of skin cells was evaluated using the Oxiselect™ advanced glycation end product (AGE) ELISA kit 24 hours after the treatment with the test substance.

[5] = tested on: ATP production in human fibroblasts; test: ATP production in cells (ATP determination kit); type: cell-based; conditions: 2.5 μM; human fibroblasts treated as in Test Example 4; untreated control 803
Description: as §1
Following treatment of human fibroblasts (CAS-C-004-5C, Invitrogen, CA, USA) as in Test Example 4, ATP production in the cells was evaluated using an ATP determination kit (Invitrogen, A22066).

[6] = tested on: Mouse melanocytes (MeI-Ab cells); test: Inhibition of melanin production; type: cell-based; conditions: Melanocyte, read-out: Melanin production inhibiting effect (%)
[7] = tested on: prostaglandin E2 production in human fibroblasts; test: Inhibition of prostaglandin E2 (PGE2) production; type: cell-based; conditions: Fibroblast, A23187 and arachidonic acid stimulation, relative to coumestrol-untreated group, average of 5, read-out: Prostaglandin E2 production inhibiting effect (%)
Description: The coumestrol's effect of inhibiting prostaglandin E2 production was tested as follows. Human fibroblasts (CAS-C-004-5C, Invitrogen, CA, USA) were cultured for 24 hours in a CO2 incubator. After replacing the medium with a fresh FBS-free medium and culturing for 2 hours, the cells were treated with coumestrol diluted to a final concentration of 0.01, 0.1 or 1 μM in a fresh FBS-free medium. The cells were then cultured for 2 hours at 37° C. in a 5% (v/v) CO2 incubator. Subsequently, after treating with 50 μM Calcium Ionophore A23187 and arachidonic acid for 5 minutes to stimulate prostaglandin E2, the cells were lysed and prostaglandin E2 was quantitated by measuring absorbance at 450 nm using an ELISA reader. The inhibiting effect (%) was calculated relative to the coumestrol-untreated group. Measurement was made 5 times and the result was averaged.

[8] = tested on: Cyclooxygenase-2 (COX-2); test: Inhibition of COX-2 biosynthesis induced by LPS (western blotting); type: cell-based; conditions: human fibroblasts, 24 hours
Description: Human fibroblasts (CAS-C-004-5C, Invitrogen, CA, USA) were used to evaluate the coumestrol's effect of inhibiting COX-2 biosynthesis. The cells were seeded onto a 6-well plate at a density of 5×10^4 cells per well and cultured for about 24 hours in a medium containing 10% FBS until ˜80% confluency. The cells were treated with coumestrol diluted to a final concentration of 0.01, 0.1 or 1 μM in a fresh FBS-free medium and then cultured for 24 hours at 37° C. in a 5% (v/v) CO2 incubator. The cells were harvested and the produced COX-2 was quantitated by western blotting.

[9] = tested on: atopic symptoms; test: Improvement of atopic dermatitis (questionnaire, 12 weeks of ointment); type: in vivo, human; conditions: ointment containing 0.1% coumestrol, twice a day, people with atopic symptoms
Text: They were asked to apply the ointment for 12 weeks, twice a day, at the sites of atopic symptoms. 12 weeks later, the improvement of the atopic symptoms was examined using a questionnaire. Improvement of typical symptoms of atopic dermatitis including “itchiness”, “dryness”, “keratinization”, “dandruff”, “erythema”, “swelling”, “skin fissure” and “ooze and eczema” was examined. The subjects were asked to score the improvement of the symptoms and the result was averaged to evaluate the improvement of atopic dermatitis.

[10] = tested on: transepidermal water loss; test: Skin moisturization: transepidermal water loss; type: in vivo, human; conditions: ointment containing 0.1% coumestrol, 24° C., RH 40%
Text: They were asked to apply the ointment for 12 weeks, twice a day, at the sites of atopic symptoms. 12 weeks later, the improvement of the atopic symptoms was examined using a questionnaire. Improvement of typical symptoms of atopic dermatitis including “itchiness”, “dryness”, “keratinization”, “dandruff”, “erythema”, “swelling”, “skin fissure” and “ooze and eczema” was examined. The subjects were asked to score the improvement of the symptoms and the result was averaged to evaluate the improvement of atopic dermatitis. In order to evaluate the improvement of skin moisturizing ability, transepidermal water loss was measured for the subjects of Test Example 9 under constant-temperature, constant-humidity conditions (24° C., RH 40%) using a […].

Compound: O=c1oc2cc(O)ccc2c2oc3cc(O)ccc3c12 [Coumestrol, 3,9-dihydroxy-6H-benzofuro(3,2-c)(1)benzopyran-6-one]
- ROS scavenging effect (%) ([1]; 0.01 μM): 18.7%
- ROS scavenging effect (%) ([1]; 0.1 μM): 25.6%
- ROS scavenging effect (%) ([1]; 1 μM): 55.1%
- activity at 0.01 µM ([2]; 0.01 μM): 115%
- activity at 0.1 µM ([2]; 0.1 μM): 102%
- activity at 1 µM ([2]; 1 μM): 98%
- Synthesis of type I pN collagen (%) ([3]; 0.01 μM): 115%
- Synthesis of type I pN collagen (%) ([3]; 0.1 μM): 126%
- Synthesis of type I pN collagen (%) ([3]; 1 μM): 129%
- Concentration of glycation end product [4]: 0.077 µg/mL
- Concentration of ATP [5]: 917 nM
- inhibition at 0.01 µM [6]: 1.2%
- inhibition at 0.1 µM [6]: 24.4%
- inhibition at 1 µM [6]: 30.1%
- inhibition at 0.01 µM ([7]; 0.01 μM): 12.8%
- inhibition at 0.1 µM ([7]; 0.1 μM): 24.8%
- inhibition at 1 µM ([7]; 1 μM): 38.2%
- COX-2 expression level (% relative to control) ([8]; 0.01 μM): 89 % relative to control
- COX-2 expression level (% relative to control) ([8]; 0.1 μM): 81 % relative to control
- COX-2 expression level (% relative to control) ([8]; 1 μM): 64 % relative to control
- Number of subjects Aggravated [9]: 0
- Number of subjects Improved [9]: 8
- Number of subjects Not changed [9]: 2
- Number of subjects Remarkably improved [9]: 5
- Transepidermal water loss (%) ([10]; 1 week later, control 34): 30%
- Transepidermal water loss (%) ([10]; 4 weeks later, control 39): 32%
- Transepidermal water loss (%) ([10]; 8 weeks later, control 41): 26%
- Transepidermal water loss (%) ([10]; 12 weeks later, control 36): 15%

Compound: Oc1ccc(O)cc1 [Hydroquinone, hydroquinone, reference compound]
- inhibition at 10 µM ([6]; 10 μM (positive control), MeI-Ab cells): 41.1%
